# Laboratory results taken from patent publication US20240083885A1, “COMPOSITIONS AND METHODS FOR INHIBITING M PRO PROTEASE ACTIVITY AND FOR PREVENTING AND TREATING SARS-COV-2 INFECTION” (priority 2020, published 2024).
# Read-outs that look alike come from different tables or passages of the source.
# Columns and labels:
# [1] = biological target: SARS-CoV-2 M^pro (Severe acute respiratory syndrome coronavirus 2 (2019-nCoV) (SARS-CoV-2), UniProt P0DTD1); assay: biochemical
# [2] = system: SARS-CoV-2; assay: microbe, parasite or virus in culture; format: cell-based; conditions: for EC50: Severe acute respiratory syndrome coronavirus 2, Vero C1008
# [3] = in vitro; conditions: African green monkey
# [4] = system: Vero E6 cells; assay: Cytotoxicity in Vero E6 cells (neutral red uptake); conditions: read-out: CC50 in Vero E6 cells
# [5] = in vitro; conditions: human, CC50 in Calu-3 cells
# [6] = read-out: SARS-COV-2 main protease enzymatic inhibition IC50
# [7] = read-out: IC50 against SARS-CoV-2 M^pro
# [8] = Vero E6 cells, immunofluorescence assay, read-out: SARS-CoV-2 antiviral assay EC50
# [9] = read-out: SARS-COV-2 antiviral activity using immunofluorescence assay EC50
# [10] = read-out: antiviral EC50 against SARS-CoV-2 in Vero E6 cells
compound,measurement,setting,value
C[C@H](NC(=O)C(c1cccnc1)N(C(=O)c1ccco1)c1ccc(N2CCCCC2)cc1)c1ccccc1 (some centres unmarked) [Jun8-97-1],IC50,[1]; [6],5.46 µM
O=C(NC1CCCCC1)C(c1cccnc1)N(C(=O)c1ccco1)c1ccc(-c2ccccc2)cc1 (centres unmarked) [Jun9-3-3],IC50,[1]; [6],2.68 µM
O=C(NC1CCCC1)C(c1cccnc1)N(C(=O)c1c[nH]cn1)c1ccc(-c2ccccc2)cc1 (centres unmarked) [Jun9-3-5],IC50,[1]; [6],7.27 µM
O=C(NC1CCCCC1)C(c1cccnc1)N(C(=O)c1c[nH]cn1)c1ccc(-c2ccccc2)cc1 (centres unmarked) [Jun9-4-2],IC50,[1]; [6],5.82 µM
C[C@H](NC(=O)C(c1cnccn1)N(C(=O)c1ccco1)c1ccc(-c2ccccc2)cc1)c1ccccc1 (some centres unmarked) [Jun9-4-4],IC50,[1]; [7],0.28 ± 0.07 µM
same,Selectivity index SI CC50/EC50,[2],>243.9
same,EC50,[2]; [8],0.82 ± 0.56 µM
same,EC50,[2]; [9],1.43 µM
same,EC50,[2]; [10],0.82 to 4.54 µM
same,CC50 at 5 days,[3]; Vero E6 Cytotoxicity CC50 (μM),> 200 µM
same,CC50,[4],> 100 µM
C[C@H](NC(=O)C(c1cnccn1)N(C(=O)c1c[nH]cn1)c1ccc(-c2ccccc2)cc1)c1ccccc1 (some centres unmarked) [Jun9-5-2],IC50,[1]; [7],0.67 ± 0.15 µM
same,Selectivity index SI CC50/EC50,[2],32.6
same,EC50,[2]; [8],4.54 ± 0.69 µM
same,EC50,[2]; [9],9.89 µM
same,EC50,[2]; [10],0.82 to 4.54 µM
same,CC50 at 5 days,[3]; Vero E6 Cytotoxicity CC50 (μM),148 ± 13.9 µM
same,CC50,[4],> 100 µM
O=C(NCC(c1ccccc1)c1ccccc1)C(c1cccnc1)N(C(=O)c1ccco1)c1ccc(-c2ccccc2)cc1 (centres unmarked) [Jun9-5-3],IC50,[1]; [6],1.48 µM
C[C@H](NC(=O)C(c1cccnc1)N(C(=O)c1ccco1)c1ccc(OC(C)(C)C)cc1)c1ccccc1 (some centres unmarked) [Jun9-5-4],IC50,[1]; [6],21.9 µM
C[C@H](NC(=O)C(c1cccnc1)N(C(=O)c1ccco1)c1ccc(-c2ccccn2)cc1)c1ccccc1 (some centres unmarked) [Jun9-6-4],IC50,[1]; [6],1.81 µM
O=C(NCCCc1ccccc1)C(c1cccnc1)N(C(=O)c1ccco1)c1ccc(-c2ccccc2)cc1 (centres unmarked) [Jun9-12-2],IC50,[1]; [6],1.06 µM
same,Selectivity index SI CC50/EC50,[2],>98.0
same,EC50,[2]; [8],2.04 ± 1.08 µM
same,EC50,[2]; [9],2.13 µM
same,EC50,[2]; [10],0.82 to 4.54 µM
same,CC50 at 5 days,[3]; Vero E6 Cytotoxicity CC50 (μM),> 200 µM
same,CC50,[4],> 100 µM
CC(C)(C)NC(=O)C(c1cnccn1)N(C(=O)c1ccco1)c1ccc(C(C)(C)C)cc1 (centres unmarked) [Jun9-17-2],IC50,[1]; [6],4.93 µM
"O=C(NC1CCCC1)C(c1cccnc1)N(C(=O)CCl)c1ccc(-c2ccccc2)cc1 (centres unmarked) [Jun9-55-1, 2-(N-{[1,1′-biphenyl]-4-yl}-2-chloroacetamido)-N-cyclopentyl-2-(pyridin-3-yl)acetamide]",CC50 at 5 days,[3]; CC50 in Vero E6 cells,< 11 µM
same,CC50 at 5 days,[5],< 2 µM
"C[C@H](NC(=O)[C@H](c1cccnc1)N(C(=O)C(Cl)Cl)c1ccc(-c2ccccc2)cc1)c1ccccc1 [Jun9-62-2S, N-([1,1′-biphenyl]-4-yl)-2,2-dichloro-N-((S)-2-oxo-2-(((S)-1-phenylethyl)amino)-1-(pyridin-3-yl)ethyl)acetamide]",IC50,[1]; IC50 against SARS-CoV-2 M^pro,> 20 µM
CC(C)(C)c1ccc(N(C(=O)c2ccco2)C(C(=O)Nc2ccc(F)cc2)c2cccnc2)cc1 (centres unmarked) [Jun9-88-3],IC50,[1]; [6],7.81 µM
COc1ccc(NC(=O)C(c2cccnc2)N(C(=O)c2ccco2)c2ccc(C(C)(C)C)cc2)cc1 (centres unmarked) [Jun9-88-4],IC50,[1]; [6],7.49 µM
"C[C@H](NC(=O)[C@H](c1cccnc1)N(C(=O)C(Br)(Br)Br)c1ccc(-c2ccccc2)cc1)c1ccccc1 [Jun9-88-6S, N-([1,1′-biphenyl]-4-yl)-2,2,2-tribromo-N-((S)-2-oxo-2-(((S)-1-phenylethyl)amino)-1-(pyridin-3-yl)ethyl)acetamide]",IC50,[1]; [7],7.16 µM
same,CC50 at 5 days,[3]; CC50 in Vero E6 cells,5.99 µM
"C[C@H](NC(=O)[C@H](c1cccnc1)N(C(=O)C(Br)Br)c1ccc(-c2ccccc2)cc1)c1ccccc1 [Jun9-89-2S, N-([1,1′-biphenyl]-4-yl)-2,2-dibromo-N-((S)-2-oxo-2-(((S)-1-phenylethyl)amino)-1-(pyridin-3-yl)ethyl)acetamide]",IC50,[1]; IC50 against SARS-CoV-2 M^pro,2.44 µM
same,CC50 at 5 days,[3]; CC50 in Vero E6 cells,4.57 µM
"C[C@H](NC(=O)C(c1cccnc1)N(C(=O)C(Cl)(Cl)Br)c1ccc(-c2ccccc2)cc1)c1ccccc1 (stereo partly drawn) [Jun9-89-3, N-([1,1′-biphenyl]-4-yl)-2-bromo-2,2-dichloro-N-(2-oxo-2-(((S)-1-phenylethyl)amino)-1-(pyridin-3-yl)ethyl)acetamide]",IC50,[1]; [7],1.2 µM
same,CC50 at 5 days,[3]; CC50 in Vero E6 cells,32.4 µM
"C[C@H](NC(=O)[C@H](c1cccnc1)N(C(=O)C(Cl)(Br)Br)c1ccc(-c2ccccc2)cc1)c1ccccc1 [Jun9-89-4S, N-([1,1′-biphenyl]-4-yl)-2,2-dibromo-2-chloro-N-((S)-2-oxo-2-(((S)-1-phenylethyl)amino)-1-(pyridin-3-yl)ethyl)acetamide]",IC50,[1]; [7],9.04 µM
"C[C@H](NC(=O)[C@H](c1cccnc1)N(C(=O)C(Cl)Cl)c1ccc(-c2ccccc2)cc1)c1ccc(Br)cc1 [Jun9-90-3S, N-([1,1′-biphenyl]-4-yl)-N-((S)-2-(((S)-1-(4-bromophenyl)ethyl)amino)-2-oxo-1-(pyridin-3-yl)ethyl)-2,2-dichloroacetamide]",IC50,[1]; IC50 against SARS-CoV-2 M^pro,> 20 µM
"C[C@@H](CCc1ccccc1)NC(=O)[C@H](c1cccnc1)N(C(=O)C(Cl)Cl)c1ccc(-c2ccccc2)cc1 [Jun9-90-4S, N-([1,1′-biphenyl]-4-yl)-2,2-dichloro-N-((S)-2-oxo-2-(((S)-4-phenylbutan-2-yl)amino)-1-(pyridin-3-yl)ethyl)acetamide]",IC50,[1]; IC50 against SARS-CoV-2 M^pro,> 20 µM
"C=C(Cl)C(=O)N(c1ccc(-c2ccccc2)cc1)C(C(=O)N[C@@H](C)c1ccccc1)c1cccnc1 (stereo partly drawn) [Jun10-38-2, N-{[1,1′-biphenyl]-4-yl}-2-chloro-N-({[(1S)-1-phenylethyl]carbamoyl}(pyridin-3-yl)methyl)prop-2-enamide]",IC50,[1]; [7],4.22 µM
